Measured values: patent US20050118188A1, “Pharmaceutical composition for immunization against AIDS” (Aventis Pasteur, S.A., priority 2000, published 2005)

Test system: female BALB/c By J Ico mice
Conditions: mouse, in vivo

## CC(C)CCC[C@@H](C)[C@H]1CC[C@H]2[C@@H]3CC=C4C[C@@H](OC(=O)NCCN(C)C)CC[C@]4(C)[C@H]3CC[C@]12C.Cl [DCchol, DC-Chol hydrochloride]
  Adjuvant effect on local IgA responses (in words): marked adjuvant effect
  Adjuvant effect on serum anti-gp160 antibodies (in words): good adjuvant
  Factor by which IgA normalized specific activities (NSA) were multiplied compared to gp160 alone: 12
